Test results taken from patent publication US20090192192A1, “INHIBITORS OF BIOFILM FORMATION OF GRAM-POSITIVE AND GRAM-NEGATIVE BACTERIA” (priority 2007, published 2009).

Experiments:
Assay type in all cases: cell-based
[1] = system: Staphylococcus epidermidis RP62A; assay: MBEC assay, biofilm formation of S. epidermidis RP62A; conditions: read-out: S. epidermidis RP62A log R (log reduction); for log reduction at 10 µM: compound concentration 10 μM; for log reduction at 100 µM: compound concentration 100 μM
Experimental: (§1) The compound to be tested was dissolved in DMSO to obtain a concentration that was 100 times that of the final concentration required (1 mM for the 10 μM assay and 10 mM for the 100 μM assay). 1.5 μL of the above solution was placed into each well of a 96 well plate (final volume in each well=150 μL, final DMSO concentration of 1% (v/v)).
(§2) To grow the organism and form a biofilm, a cryogenic stock of the test organism (at −70° C.) was used. A first sub-culture was streaked out onto TSA (tryptic soy agar), upon which the plate was incubated at 35±2° C. for 24 hours and stored wrapped in parafilm at 4° C. afterwards. From this first sub-culture, a second sub-culture was streaked out onto TSA. The plate was incubated at 35±2° C. for 24 hours. The second sub-culture was used within 24 hours starting from the time it was first removed from incubation. Using the second sub-culture an inoculum in 3 mL sterile water that matches a 0.5 McFarland Standard (1.5×10^8 cells per mL) was created in a glass test tube using a sterile cotton swab. 2.2 mL of this solution was diluted in 22 mL 100% TSB (tryptic soy broth) medium to a cell density of approximately 6.0×10^5 cells per mL. The diluted organism was inverted 3-5 times to achieve uniform mixing of the organism. One sample (100 μl) of the diluted organism was used for an inoculum check by serially diluting and spot plating on TSA.
(§3) To prepare a challenge plate, […] of the diluted organism was added to each well of a 96 well plate except the sterility control wells. The test compounds were added to the wells to make up final concentrations of 10 μM and […] (1.5 μL/well) in the designated location in the test plate. 128.5 μL of 100% universal neutralizer (1% Tween 80 in Cation Adjusted Mueller Hinton Broth, CAMHB) was placed in each of the wells. 130 μL of media was added to the growth control wells. 128.5 μL of media+1.5 μL of DMSO were added to a second set of growth control wells. 150 μL of media was added to the sterility controls. Each sample was run in triplicate. The plate was covered by a lid with a peg per well and wrapped in parafilm and placed on a shaker in a humidified incubator (GeneVac) at 35±+2° C. for 24 hours set at 110 rpm.
(§4) Rinse plate(s) of 0.9% saline (200 μL per well) were prepared in a sterile 96 well microtitre plate. Lid-associated pegs were rinsed in 0.9% saline for approximately 1-2 minutes. The peg lid was transferred to the recovery media (1.0% Tween 80 in CAMHB) then sonicated for 30 minutes to dislodge surviving biofilm. Following sonication, 100 μL from each well of the 96 well plate was placed into the first 12 wells of the first row of a 96 well microtiter plate. 180 μl of 0.9% sterile saline was placed in the remaining rows. A serial dilution (10^0-10^7) was prepared by moving 20 μl down each of the 8 rows. 20 μl from each well was removed and spot plated on a prepared TSA. In the remaining recovery plate, 100 μl of fresh growth media (1.0% Tween 80 in CAMHB) was placed in each well to replace the amount removed. The recovery plate was covered with a regular lid and incubated at 35±2° C. for 24 hours and read visually to confirm antimicrobial activity of the test compounds.
(§5) The compounds of the present disclosure have been tested regarding their efficiency to inhibit biofilm formation of Staphylococcus aureus U of C#18 (MRSA), Staphylococcus aureus 456 (MRSA), Staphylococcus epidermidis RP62A, and Pseudomonas aeruginosa PAO1.

[2] = system: Pseudomonas aeruginosa PAO1; assay: MBEC assay, biofilm formation of P. aeruginosa PAO1; conditions: for IC50: biofilm formation, read-out: P. aeruginosa PAO1 inhibitory concentration IC50; for inhibition at 100 µM: compound concentration 100 μM
Procedure, shortened: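 Peg-lid biofilms were grown 24 h at 35±2 °C, 110 rpm, from inoculum diluted to ~6.0×10^5 cells per mL in TSB, with compound at 10 μM or 100 μM final (1% DMSO) in 1% Tween 80/CAMHB. Pegs were rinsed, then sonicated 30 min into recovery medium; survivors were spot-plated, and recovery plates were read visually after 24 h; triplicates.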

[3] = system: Staphylococcus aureus U of C#18 (MRSA); assay: MBEC assay, biofilm formation of S. aureus U of C #18 (MRSA); conditions: read-out: S. aureus U of C #18 (MRSA) log R (log reduction); for log reduction at 10 µM: compound concentration 10 μM; for log reduction at 100 µM: compound concentration 100 μM
Experimental: as §1, §2, §3, §4, §5

[4] = system: Staphylococcus aureus 456 (MRSA); assay: MBEC assay, biofilm formation of S. aureus 456 (MRSA); conditions: read-out: S. aureus 456 (MRSA) log R (log reduction); for log reduction at 10 µM: compound concentration 10 μM; for log reduction at 100 µM: compound concentration 100 μM
Experimental: as §1, §2, §3, §4, §5

[5] = system: Staphylococcus aureus 398 (MRSA); assay: MBEC assay, biofilm formation of S. aureus 398 (MRSA)
Experimental: as §1
as §2, with “2.2 mL of this solution was diluted in 22 mL 100% TSB (tryptic soy broth) medium to a cell density of approximately 6.0×10^5 cells per mL. The diluted organism was inverted 3-5 times to achieve uniform mixing of the organism. One sample (100 μl) of the diluted organism was used for an inoculum check by serially diluting and spot plating on TSA.” left out
Rinse plate(s) of 0.9% saline (200 μL per well) were prepared in a sterile 96 well microtitre plate. […] The recovery plate was covered with a regular lid and incubated at 35±2° C. for 24 hours and read visually to confirm antimicrobial activity of the test compounds. […]

SMILES | IC50 [2] | log reduction at 10 µM [1] | log reduction at 100 µM [1] | log reduction at 10 µM [3] | log reduction at 100 µM [3] | log reduction at 10 µM [4] | log reduction at 100 µM [4] | inhibition at 100 µM [2] | S. aureus 398 (MRSA) log R (log reduction) ([5]; compound concentration 10 μM) | S. aureus 398 (MRSA) log R (log reduction) ([5]; compound concentration 100 μM)
CCCCCCCCOCCC(=O)N(C)c1ccc(F)cc1 [Example 5, N-(4-fluorophenyl)-N-methyl-3-(octyloxy)propanamide] | 24 µM | 0 | 0 | -0.21 | 1.29 | 0.54 | 1.86 | – | – | –
CCCCCCCCCCCCC(=O)N1CCCC(C(=O)N(CC)CC)C1 (centres unmarked) [Example 12, N,N-diethyl-1-tridecanoylpiperidine-3-carboxamide] | – | 1.42 | 2.47 | 0.08 | 1.57 | – | – | 85% | – | –
CCCCCCCCCCC(=O)N1CCCC(C(=O)N(CC)CC)C1 (centres unmarked) [Example 11, N,N-diethyl-1-undecanoylpiperidine-3-carboxamide] | – | 0.77 | 1.48 | 0.84 | 0.88 | – | – | 75% | – | –
CCCCCCCCOCCC(=O)Nc1ccc(F)cc1C(F)(F)F [Example 3, N-(4-fluoro-2-(trifluoromethyl)phenyl)-3-(octyloxy)propanamide] | 19 µM | 0 | 0 | 0.11 | 0.19 | 0.19 | 0.49 | – | – | –
CCCCCCCCCCNC(=O)N1CCCC(C(=O)N(CC)CC)C1 (centres unmarked) [Example 10, N^1-decyl-N^3,N^3-diethylpiperidine-1,3-dicarboxamide] | – | 1.33 | 1.28 | 1.17 | 0.91 | – | – | 84% | 1.38 | 2.54
CCCCCCCCCOCC(=O)Nc1ccnn1C [Example 1, N-(1-methylpyrazol-5-yl)-2-(nonyloxy)acetamide] | 27 µM | 0 | 0 | 0.4 | 0.77 | 0.26 | 1.18 | – | – | –

More lines, main results first:

IC50 [2] | SMILES | log reduction at 10 µM [1] | log reduction at 100 µM [1] | log reduction at 10 µM [3] | log reduction at 100 µM [3] | log reduction at 10 µM [4] | log reduction at 100 µM [4] | inhibition at 100 µM [2] | S. aureus 398 (MRSA) log R (log reduction) ([5]; compound concentration 10 μM) | S. aureus 398 (MRSA) log R (log reduction) ([5]; compound concentration 100 μM)
3 µM | CCCCCCCCCCNC(=O)Nc1cc(C(C)(C)C)nn1C [Example 8, 1-(3-tert-butyl-1-methylpyrazol-5-yl)-3-decylurea] | 0 | 0 | 0.26 | 0.8 | 0.42 | 1.04 | – | – | –
12 µM | CCCCCCCCCCCC(=O)N1CCCC(C(=O)N(CC)CC)C1 (centres unmarked) [Example 2, 1-dodecanoyl-N,N-diethylpiperidine-3-carboxamide] | 0 | 3.5 | 1.56 | 5.38 | 1.75 | 5.79 | – | – | –
12 µM | CCCCCCCCCCCC(=O)Nc1cc(C(C)(C)C)nn1C [Example 9, N-(3-tert-butyl-1-methylpyrazol-5-yl)dodecanamide] | 0 | 0 | 0.42 | 0.46 | 0.65 | 1.06 | – | – | –
11 µM | CCCCCCCCCC(=O)NC(=O)Nc1ccnn1CC [Example 4, N-(1-ethylpyrazol-5-ylcarbamoyl)decanamide] | 0 | 0.78 | 1.13 | 1.49 | 1.14 | 3.28 | – | – | –
9 µM | CCCCCCCCCCNC(=O)N(C)c1ccccc1 [Example 6, 3-decyl-1-methyl-1-phenylurea] | 0 | 4.45 | 0.72 | 1.08 | 1.61 | 2.3 | – | – | –
4 µM | CCCCCCCCCCNC(=O)N(C)[C@@H](C)c1ccccc1 [Example 7, (S)-3-decyl-1-methyl-1-(1-phenylethyl)urea] | 0 | 0 | 0.84 | 1.12 | 0.53 | 1.26 | – | – | –
